Assay results published in patent US6677368B2, “4-aryl substituted indolinones” (Sugen, Inc., priority 2000, dated 2004).

Columns and labels:
FLK-1 = biological target: T1, FLK-1 (Mus musculus, UniProt P35918); experiment: GST-FLK-1 bioassay (tyrosine kinase activity on poly(glu-tyr)); assay type: biochemical; settings: GST-Flk1, poly(glu-tyr) substrate, 0.5 μM ATP
T1 construct: GST-Flklcd purified from sf9 recombinant baculovirus transfomnation (SUGEN, Inc.); host or cells: Sf9 insect cells, recombinant baculovirus
Method: This assay analyzes the tyrosine kinase activity of GST-Flk1 on poly(glu-tyr) peptides.
1. Corning 96-well ELISA plates (Corning Catalog No. 25805-96).
2. poly(glu-tyr) 4:1, lyophilizate (Sigma Catalog No. P0275), 1 mg/ml in sterile PBS.
3. PBS Buffer: for 1 L, mix 0.2 g KH2PO4, 1.15 g Na2HPO4, 0.2 g KCl and 8 g NaCl in approx. 900 ml dH2O. When all reagents have dissolved, adjust the pH to 7.2 with HCl. Bring total volume to 1 L with dH2O.
4. PBST Buffer: to 1 L of PBS Buffer, add 1.0 ml Tween-20.
5. TBB—Blocking Buffer: for 1 L, mix 1.21 g TRIS, 8.77 g NaCl, 1 ml TWEEN-20 in approximately 900 ml dH2O. Adjust pH to 7.2 with HCl. Add 10 g BSA, stir to dissolve. Bring total volume to 1 L with dH2O. Filter to remove particulate matter.
6. 1% BSA in PBS: add 10 g BSA to approx. 990 ml PBS buffer, stir to dissolve. Adjust total volume to 1 L with PBS buffer, filter to remove particulate matter.
8. GST-Flklcd purified from sf9 recombinant baculovirus transfomnation (SUGEN, Inc.).
12. Kinase Dilution Buffer (KDB): mix 10 ml Hepes (pH 7.5), 1 ml 5M NaCl, 40 μL 100 mM sodium orthovanadate and 0.4 ml of 5% BSA in dH2O with 88.56 ml dH2O.
13. NUNC 96-well V bottom polypropylene plates, Applied Scientific Catalog #AS-72092
14. EDTA: mix 14.12 g ethylenediaminetetraacetic acid (EDTA) with approx. 70 ml dH2O. Add 10 N NaOH until EDTA dissolves. Adjust pH to 8.0. Adjust total volume to 100 ml with dH2O.
15. 1° and 2° Antibody Dilution Buffer: mix 10 ml of 5% BSA in PBS buffer with 89.5 ml TBST.
16. Anti-phosphotyrosine rabbit polyclonal antisera (SUGEN, Inc.)
17. Goat anti-rabbit HRP conjugate.
18. ABST solution: To approx. 900 ml dH2O add 19.21 g citric acid and 35.49 g Na2HPO4. Adjust pH to 4.0 with phosphoric acid. Add 2,2′-Azinobis(3-ethyl-benzthiazoline-6-sulfonic acid (ABTS, Sigma, Cat. No. A-1888, hold for approx. ½ hour, filter.
19. 30% Hydrogen Peroxide.
20. ABST/H2O2: add 3 μl of H2O2 to 15 ml of ABST solution.
1. Coat Corning 96-well ELISA plates with 2 μg of polyEY in 100 μl PBS/well, hold at room temperature for 2 hours or at […] overnight. Cover plates to prevent evaporation.
2. Remove unbound liquid from wells by inverting plate. Wash once with TBST. Pat the plate on a paper towel to remove excess liquid.
3. Add 100 μl of 1% BSA in PBS to each well. Incubate, with shaking, for 1 hr. at room temperature.
5. Soak wells with 50 mM HEPES (pH7.5, 150 μl/well).
6. Dilute test compound with dH2O/4% DMSO to 4 times the desired final assay concentration in 96-well polypropylene plates.
7. Add 25 μl diluted test compound to each well of ELISA plate. In control wells, place 25 μl of dH2O/4% DMSO.
8. Dilute GST-Flk1 0.005 μg (5 ng)/well in KDB.
9. Add 50 μl of diluted enzyme to each well.
10. Add 25 μl 0.5 M EDTA to negative control wells.
11. Add 25 μl of 40 mM MnCl2 with 4×ATP (2 μM) to all wells (100 μl final volume, 0.5 μM ATP final concentration in each well).
12. Incubate, with shaking, for 15 minutes at room temperature.
13. Stop reaction by adding 25 μl of 500 mM EDTA to each well.
14. Wash 3× with TBST and pat plate on paper towel to remove excess liquid.
15. Add 100 μl per well anti-phosphotyrosine antisera, 1:10,000 dilution in antibody dilution buffer. Incubate, with shaking, for 90 min. at room temperature.
17. Add 100 μl/well of goat anti-rabbit HRP conjugate (1:6,000 in antibody dilution buffer). Incubate, with shaking, for 90 minutes are room temperature.
19. Add 100 μl room temperature ABST/H2O2 solution to each well.
20. Incubate, with shaking for 15 to 30 minutes at room temperature.
21. If necessary, stop reaction by adding 100 μl of 0.2 M HCl to each well.
22. Read results on Dynatech MR7000 ELISA reader with test filter at 410 nM and reference filter at 630 nM.

FGFR3 = FGFR3 (Homo sapiens, UniProt P22607); experiment: FGFR3 kinase inhibition; assay type: biochemical
FGFR3, sequence (P22607 23-806, species assumed): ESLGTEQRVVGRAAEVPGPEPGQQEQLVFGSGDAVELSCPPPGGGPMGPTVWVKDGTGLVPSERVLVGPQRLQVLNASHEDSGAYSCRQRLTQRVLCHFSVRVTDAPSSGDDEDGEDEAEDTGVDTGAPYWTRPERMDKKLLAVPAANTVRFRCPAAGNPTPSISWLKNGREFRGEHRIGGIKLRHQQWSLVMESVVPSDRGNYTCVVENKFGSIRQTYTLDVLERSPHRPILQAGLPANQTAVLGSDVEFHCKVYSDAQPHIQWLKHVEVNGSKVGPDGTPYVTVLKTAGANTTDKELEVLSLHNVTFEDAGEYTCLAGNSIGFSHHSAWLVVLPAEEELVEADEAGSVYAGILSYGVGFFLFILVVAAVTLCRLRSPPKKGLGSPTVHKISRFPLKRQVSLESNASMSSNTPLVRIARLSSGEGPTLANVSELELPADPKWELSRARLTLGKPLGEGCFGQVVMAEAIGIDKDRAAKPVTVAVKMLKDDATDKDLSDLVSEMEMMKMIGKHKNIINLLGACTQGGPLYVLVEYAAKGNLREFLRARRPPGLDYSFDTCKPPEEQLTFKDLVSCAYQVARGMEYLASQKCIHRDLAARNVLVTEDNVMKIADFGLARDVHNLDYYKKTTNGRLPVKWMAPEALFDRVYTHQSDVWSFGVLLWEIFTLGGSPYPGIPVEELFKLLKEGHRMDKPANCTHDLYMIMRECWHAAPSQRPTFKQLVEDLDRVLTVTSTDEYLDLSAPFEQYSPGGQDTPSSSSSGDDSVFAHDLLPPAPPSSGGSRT

T1 sequence (P35918 784-1345 limits assumed): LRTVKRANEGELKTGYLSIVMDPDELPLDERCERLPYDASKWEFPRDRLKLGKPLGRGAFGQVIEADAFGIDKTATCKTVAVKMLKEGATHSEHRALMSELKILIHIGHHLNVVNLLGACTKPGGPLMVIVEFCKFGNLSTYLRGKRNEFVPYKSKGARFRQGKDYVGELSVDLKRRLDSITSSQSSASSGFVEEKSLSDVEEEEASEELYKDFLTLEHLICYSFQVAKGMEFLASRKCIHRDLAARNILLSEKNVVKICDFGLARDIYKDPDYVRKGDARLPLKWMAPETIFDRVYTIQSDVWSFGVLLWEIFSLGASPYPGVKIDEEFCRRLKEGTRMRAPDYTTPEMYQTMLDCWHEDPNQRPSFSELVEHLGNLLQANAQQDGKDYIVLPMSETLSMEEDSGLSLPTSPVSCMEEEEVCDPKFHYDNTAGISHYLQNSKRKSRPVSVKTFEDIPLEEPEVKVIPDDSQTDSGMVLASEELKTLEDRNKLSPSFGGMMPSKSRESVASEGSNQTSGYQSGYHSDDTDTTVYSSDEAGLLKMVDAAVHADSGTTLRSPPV

IC50 (FLK-1)	IC50 (FGFR3)	Compound
92 nM	1990 nM	Cc1cc(C(=O)N2C[C@@H](C)N[C@@H](C)C2)c(/C=C2\C(=O)Nc3cccc(-c4cccc(Cl)c4)c32)[nH]1 [Example 35, 4-(3-Chloro-phenyl)-3-[3-((cis)-3,5-dimethyl-piperazine-1-carbonyl)-5-methyl-1H-pyrrol-2-ylmethylene]-1,3-dihydro-indol-2-one]
29 nM	46 nM	COc1ccc(-c2cccc3c2/C(=C/c2[nH]c(C)c(C(=O)NCCN4CCCC4)c2C)C(=O)N3)cc1 [Example 38, 5-[4-(4-Methoxy-phenyl)-2-oxo-1,2-dihydro-indol-3-ylidenemethyl]-2,4-dimethyl-1H-pyrrole-3-carboxylic Acid (2-Pyrrolidin-1-yl-ethyl)-amide]
41 nM	380 nM	COc1ccc(-c2cccc3c2/C(=C/c2[nH]c(C)c(C(=O)N4C[C@@H](C)N[C@@H](C)C4)c2C)C(=O)N3)cc1 [Example 40, 3-[4-((cis)-3,5-Dimethyl-piperazine-1-carbonyl)-3,5-dimethyl-1H-pyrrol-2-ylmethylene]-4-(4-methoxy-phenyl)-1,3-dihydro-indol-2-one]
79 nM	790 nM	COc1ccc(-c2cccc3c2/C(=C/c2[nH]c(C)cc2C(=O)NCCN2CCCC2)C(=O)N3)cc1 [Example 41, 2-[4-(4-Methoxy-phenyl)-2-oxo-1,2-dihydro-indol-3-ylidenemethyl]-5-methyl-1H-pyrrole-3-carboxylic Acid (2-Pyrrolidin-1-yl-ethyl)-amide]
9 nM	9 nM	CCN(CC)CCNC(=O)c1c(C)[nH]c(/C=C2\C(=O)Nc3cccc(-c4cccc(OC)c4)c32)c1C [Example 46, 5-[4-(3-Methoxy-phenyl)-2-oxo-1,2-dihydro-indol-3-ylidenemethyl]-2,4-dimethyl-1H-pyrrole-3-carboxylic Acid (2-Diethylamino-ethyl)-amide]
12 nM	190 nM	COc1cccc(-c2cccc3c2/C(=C/c2[nH]c(C)c(C(=O)NCCn4ccnn4)c2C)C(=O)N3)c1 [Example 48, 5-[4-(3-Methoxy-phenyl)-2-oxo-1,2-dihydro-indol-3-ylidenemethyl]-2,4-dimethyl-1H-pyrrole-3-carboxylic Acid (2-[1,2,3]Triazol-1-yl-ethyl)-amide]
5 nM	< 9.1 nM	COc1cccc(-c2cccc3c2/C(=C/c2[nH]c(C)c(C(=O)NCCN(C(C)C)C(C)C)c2C)C(=O)N3)c1 [Example 52, 5-[4-(3-Methoxy-phenyl)-2-oxo-1,2-dihydro-indol-3-ylidenemethyl]-2,4-dimethyl-1H-pyrrole-3-carboxylic Acid (2-Diisopropylamino-ethyl)-amide]
21 nM	680 nM	Cc1[nH]c(/C=C2\C(=O)Nc3cccc(-c4ccc(Br)cc4)c32)c(C)c1C(=O)N1CCN(C)CC1 [Example 53]
29 nM	87 nM	Cc1[nH]c(/C=C2\C(=O)Nc3cccc(-c4ccc(Br)cc4)c32)c(C)c1C(=O)N1C[C@@H](C)N[C@@H](C)C1 [Example 57, 4-(4-Bromo-phenyl)-3-[4-[(cis)-3,5-dimethyl-piperazine-1-carbonyl)-3,5-dimethyl-1H-pyrrol-2-ylmethylene]-1,3-dihydro-indol-2-one]
54 nM	220 nM	Cc1cc(C(=O)NCCN2CCCC2)c(/C=C2\C(=O)Nc3cccc(-c4ccc(Br)cc4)c32)[nH]1 [Example 58, 2-[4-(4-Bromo-phenyl)-2-oxo-1,2-dihydro-indol-3-ylidenemethyl]-5-methyl-1H-pyrrole-3-carboxylic Acid (2-Pyrrolidin-1-yl-ethyl)-amide]
18 nM	550 nM	Cc1[nH]c(/C=C2\C(=O)Nc3cccc(-c4ccc(Br)cc4)c32)c(C)c1C(=O)NCCN(C(C)C)C(C)C [Example 60, 5-[4-(4-Bromo-phenyl)-2-oxo-1,2-dihydro-indol-3-ylidenemethyl]-2,4-dimethyl-1H-pyrrole-3-carboxylic Acid (2-Diisopropylamino-ethyl)-amide]
6 nM	< 9.1 nM	CCN(CC)CCNC(=O)c1c[nH]c(/C=C2\C(=O)Nc3cccc(-c4ccc(Br)cc4)c32)c1C [Example 61, 5-[4-(4-Bromo-phenyl)-2-oxo-1,2-dihydro-indol-3-ylidenemethyl]-4-methyl-1H-pyrrole-3-carboxylic Acid (2-Diethylamino-ethyl)-amide]
43 nM	94 nM	CCN(CC)CCNC(=O)c1c(C)[nH]c(/C=C2\C(=O)Nc3cccc(-c4cccc(Br)c4)c32)c1C [Example 63, 5-[4-(3-Bromo-phenyl)-2-oxo-1,2-dihydro-indol-3-ylidenemethyl]-2,4-dimethyl-1H-pyrrole-3-carboxylic Acid (2-Diethylamino-ethyl)-amide]
